This note sets out measurements from patent US8999981B2, “3-amido-pyrrolo[3,4-C]pyrazole-5(1H, 4H,6H) carbaldehyde derivatives” (Pfizer Inc., priority 2007, dated 2015).

The assay has as its target Protein Kinase C beta 2 (PKCβII) (Homo sapiens (Human), UniProt P05771). Briefly: PKCβII coupled PK/LDH spectrophotometric kinase assay. The settings on record: apparent Ki, ATP-competitive model (Morrison equation); 0.1 mM ATP, 30° C.; read-out: PKCb Ki. Type of assay: biochemical.

Protein Kinase C beta 2 (PKCβII), sequence (P05771 other isoform, or with tags, fused parts or gaps): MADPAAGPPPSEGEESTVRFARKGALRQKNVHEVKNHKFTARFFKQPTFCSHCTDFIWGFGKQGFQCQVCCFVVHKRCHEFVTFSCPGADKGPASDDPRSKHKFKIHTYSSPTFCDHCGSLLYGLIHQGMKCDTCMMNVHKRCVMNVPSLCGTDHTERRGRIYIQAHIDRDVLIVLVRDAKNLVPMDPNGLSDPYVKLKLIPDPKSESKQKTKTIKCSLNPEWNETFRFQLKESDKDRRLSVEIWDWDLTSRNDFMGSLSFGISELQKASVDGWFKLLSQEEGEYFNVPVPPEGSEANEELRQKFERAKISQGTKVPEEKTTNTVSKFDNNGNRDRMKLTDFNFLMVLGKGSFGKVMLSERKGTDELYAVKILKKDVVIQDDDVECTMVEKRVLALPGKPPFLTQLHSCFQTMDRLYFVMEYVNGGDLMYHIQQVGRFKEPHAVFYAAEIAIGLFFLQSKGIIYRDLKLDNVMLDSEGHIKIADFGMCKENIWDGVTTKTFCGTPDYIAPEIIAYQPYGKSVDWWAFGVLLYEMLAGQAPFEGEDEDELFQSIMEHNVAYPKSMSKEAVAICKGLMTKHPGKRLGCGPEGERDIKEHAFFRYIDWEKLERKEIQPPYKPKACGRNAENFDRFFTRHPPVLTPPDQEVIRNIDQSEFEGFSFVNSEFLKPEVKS

For the compound `C[C@H]1CN2CCC[C@H]2CN1C(=O)N1Cc2c(NC(=O)c3cc(C(C)(C)C)nn3C)n[nH]c2C1(C)C` [Example E10], the Ki was determined as 0.0106 µM.
The figure for `Cc1nc(C)c(C(=O)Nc2n[nH]c3c2CN(C(=O)N2C[C@@H]4CCCN4C[C@@H]2C)C3(C)C)o1` [Example E11] is 0.0289 µM; for `C[C@H]1CN2CCC[C@H]2CN1C(=O)N1Cc2c(NC(=O)c3cc(C4CC4)on3)n[nH]c2C1(C)C` [Example E12] it is 0.0586 µM; for `C[C@H]1CN2CCC[C@H]2CN1C(=O)N1Cc2c(NC(=O)c3c(F)ccc(F)c3F)n[nH]c2C1(C)C` [Example E13] it is 0.135 µM.
Under `C[C@@H]1CN(C(=O)N2Cc3c(NC(=O)c4cn(C)cn4)n[nH]c3C2(C)C)[C@@H](C)CN1CC1CCOCC1` [Example E14] stands 0.156 µM.
The figure for `CCc1nc(C)c(C(=O)Nc2n[nH]c3c2CN(C(=O)N2C[C@@H](C)N(CC4CCOCC4)C[C@@H]2C)C3(C)C)o1` [Example F1, N-(5-{[(2S,5R)-2,5-dimethyl-4-(tetrahydro-2H-pyran-4-ylmethyl)piperazin-1-yl]carbonyl}-6,6-dimethyl-1,4,5,6-tetrahydropyrrolo[3,4-c]pyrazol-3-yl)-2-ethyl-4-methyl-1,3-oxazole-5-carboxamide] is 0.0224 µM; for `COCCCN1C[C@H](C)N(C(=O)N2Cc3c(NC(=O)c4cc(C)nc(C)n4)n[nH]c3C2(C)C)C[C@H]1C` [Example F2] it is 0.0784 µM; for `COCCCN1C[C@H](C)N(C(=O)N2Cc3c(NC(=O)c4cnccn4)n[nH]c3C2(C)C)C[C@H]1C` [Example F3] it is 0.625 µM.
Consider `CCc1cc(C(=O)Nc2n[nH]c3c2CN(C(=O)N2C[C@@H](C)N(CCCOC)C[C@@H]2C)C3(C)C)n(C)n1` [Example F4], for which the Ki stood at 0.0373 µM.
On to `COCCCN1C[C@H](C)N(C(=O)N2Cc3c(NC(=O)c4oc(C)cc4C)n[nH]c3C2(C)C)C[C@H]1C` [Example F5], for which the Ki came to 0.0718 µM.
Under `CCc1nc(C)c(C(=O)Nc2n[nH]c3c2CN(C(=O)N2C[C@@H](C)N(CCCOC)C[C@@H]2C)C3(C)C)o1` [Example F6] stands 0.0836 µM.
Under `COCCCN1C[C@H](C)N(C(=O)N2Cc3c(NC(=O)Cc4c(C)noc4C)n[nH]c3C2(C)C)C[C@H]1C` [Example F7] stands 0.0671 µM.
In the case of `COCCCN1C[C@H](C)N(C(=O)N2Cc3c(NC(=O)c4ocnc4C)n[nH]c3C2(C)C)C[C@H]1C` [Example F8], the Ki came out at 0.0956 µM.
As to `C[C@@H]1CN(C(=O)N2Cc3c(NC(=O)c4cn(C)cn4)n[nH]c3C2(C)C)[C@@H](C)CN1CC1CCOCC1` [Example F9], the Ki was 0.0624 µM.
Consider `Cc1nc(C)c(C(=O)Nc2n[nH]c3c2CN(C(=O)N2C[C@@H](C)N(CC4CCOCC4)C[C@@H]2C)C3(C)C)s1` [Example F10], for which the Ki came to 0.0226 µM.
As for `C[C@@H]1CN(C(=O)N2Cc3c(NC(=O)c4cc(C5CC5)on4)n[nH]c3C2(C)C)[C@@H](C)CN1CC1CCOCC1` [Example F11], the Ki stood at 0.0298 µM.
Regarding `Cc1cc(C(=O)Nc2n[nH]c3c2CN(C(=O)N2C[C@@H](C)N(CC4CCOCC4)C[C@@H]2C)C3(C)C)n(C)n1` [Example F12], the Ki worked out at 0.033 µM.
Under `Cc1cc(C(=O)Nc2n[nH]c3c2CN(C(=O)N2C[C@@H](C)N(CC4CCOCC4)C[C@@H]2C)C3(C)C)no1` [Example F13] stands 0.0411 µM; under `CCn1nc(C)cc1C(=O)Nc1n[nH]c2c1CN(C(=O)N1C[C@@H](C)N(CC3CCOCC3)C[C@@H]1C)C2(C)C` [Example F14], 0.02 µM.
With `CCc1ocnc1C(=O)Nc1n[nH]c2c1CN(C(=O)N1C[C@@H](C)N(CC3CCOCC3)C[C@@H]1C)C2(C)C` [Example F15], the Ki turned out to be 0.0521 µM.
Under `C[C@@H]1CN(C(=O)N2Cc3c(NC(=O)c4ccn(C)n4)n[nH]c3C2(C)C)[C@@H](C)CN1CC1CCOCC1` [Example F16] stands 0.0258 µM; under `C[C@@H]1CN(C(=O)N2Cc3c(NC(=O)c4cc(C5CC5)n[nH]4)n[nH]c3C2(C)C)[C@@H](C)CN1CC1CCOCC1` [Example F17], 0.0194 µM.
The figure for `CCc1cc(C(=O)Nc2n[nH]c3c2CN(C(=O)N2C[C@@H](C)N(CC4CCOCC4)C[C@@H]2C)C3(C)C)on1` [Example F18] is 0.0321 µM; for `CCc1cc(C(=O)Nc2n[nH]c3c2CN(C(=O)N2C[C@@H](C)N(CC4CCOCC4)C[C@@H]2C)C3(C)C)no1` [Example F19] it is 0.0265 µM.
Take `Cc1nc(C)c(C(=O)Nc2n[nH]c3c2CN(C(=O)N2C[C@@H](C)N(CC4CCOCC4)C[C@@H]2C)C3(C)C)o1` [Example F20]: the Ki is 0.0197 µM.
As to `Cc1cc(C(=O)Nc2n[nH]c3c2CN(C(=O)N2C[C@@H](C)N(CC4CCOCC4)C[C@@H]2C)C3(C)C)on1` [Example F21], the Ki was 0.0381 µM.
Under `Cc1nonc1C(=O)Nc1n[nH]c2c1CN(C(=O)N1C[C@@H](C)N(CC3CCOCC3)C[C@@H]1C)C2(C)C` [Example F22] stands 0.0473 µM; under `Cc1nc(C(=O)Nc2n[nH]c3c2CN(C(=O)N2C[C@@H](C)N(CC4CCOCC4)C[C@@H]2C)C3(C)C)c(C)o1` [Example F23], 0.0313 µM; under `CCCc1cc(C(=O)Nc2n[nH]c3c2CN(C(=O)N2C[C@@H](C)N(CC4CCOCC4)C[C@@H]2C)C3(C)C)no1` [Example F24], 0.0594 µM.
Under `CCc1nc(C(=O)Nc2n[nH]c3c2CN(C(=O)N2C[C@@H](C)N(CC4CCOCC4)C[C@@H]2C)C3(C)C)cs1` [Example F25] stands 0.0333 µM.
Under `CCc1ccc(C(=O)Nc2n[nH]c3c2CN(C(=O)N2C[C@@H](C)N(C4CCOCC4)C[C@@H]2C)C3(C)C)nc1` [Example F51] stands less than 0.01 µM.
Turning to `C[C@@H]1CN(C(=O)N2Cc3c(NC(=O)c4ccc(N5CCOCC5)cn4)n[nH]c3C2(C)C)[C@@H](C)CN1C1CCOCC1` [Example F52], the Ki is less than 0.01 µM.
Under `C[C@@H]1CN(C(=O)N2Cc3c(NC(=O)c4ccncn4)n[nH]c3C2(C)C)[C@@H](C)CN1C1CCOCC1` [Example F53] stands 0.024 µM.
As to `Cc1ccc(C(=O)Nc2n[nH]c3c2CN(C(=O)N2C[C@@H](C)N(C4CCOCC4)C[C@@H]2C)C3(C)C)nc1` [Example F54], the Ki came out at 0.0122 µM.
In the case of `COc1ccc(C(=O)Nc2n[nH]c3c2CN(C(=O)N2C[C@@H](C)N(C4CCOCC4)C[C@@H]2C)C3(C)C)nc1` [Example F55], the Ki was less than 0.01 µM.
On to `C[C@@H]1CN(C(=O)N2Cc3c(NC(=O)c4ccc(Cl)cn4)n[nH]c3C2(C)C)[C@@H](C)CN1C1CCOCC1` [Example F56], for which the Ki is less than 0.01 µM.
On to `C[C@@H]1CN(C(=O)N2Cc3c(NC(=O)c4cnccn4)n[nH]c3C2(C)C)[C@@H](C)CN1CC1CCOCC1` [Example F57], for which the Ki is 0.0527 µM.
Under `C[C@@H]1CN(C(=O)N2Cc3c(NC(=O)c4ncccn4)n[nH]c3C2(C)C)[C@@H](C)CN1CC1CCOCC1` [Example F58] stands 0.133 µM; under `Cc1noc(C)c1CC(=O)Nc1n[nH]c2c1CN(C(=O)N1C[C@@H](C)N(CC3CCOCC3)C[C@@H]1C)C2(C)C` [Example F59], 0.02 µM; under `C[C@@H]1CN(C(=O)N2Cc3c(NC(=O)c4ccc(C(F)(F)F)cn4)n[nH]c3C2(C)C)[C@@H](C)CN1CC1CCOCC1` [Example F60], 0.00417 µM.
On to `C[C@@H]1CN(C(=O)N2Cc3c(NC(=O)c4ccc(C#N)cn4)n[nH]c3C2(C)C)[C@@H](C)CN1C1CCOCC1` [Example G1, 5-cyano-N-(5-{[(2S,5R)-2,5-dimethyl-4-(tetrahydro-2H-pyran-4-yl)piperazin-1-yl]carbonyl}-6,6-dimethyl-1,4,5,6-tetrahydropyrrolo[3,4-c]pyrazol-3-yl)pyridine-2-carboxamide], for which the Ki was less than 0.01 µM.
Under `C[C@@H]1CN(C(=O)N2Cc3c(NC(=O)c4ccc(C#N)cn4)n[nH]c3C2(C)C)[C@@H](C)CN1C` [Example G2] stands 0.0287 µM; under `C[C@@H]1CN(C(=O)N2Cc3c(NC(=O)c4ccc(C#N)cn4)n[nH]c3C2(C)C)[C@@H](C)CN1CC1CCOCC1` [Example G3], less than 0.01 µM.
